Data from ChEMBL document CHEMBL5523713, “Development of novel N-aryl-2,4-bithiazole-2-amine-based CYP1B1 degraders for reversing drug resistance” (Eur J Med Chem, 2024).
Active and inactive are the calls of the source. No cut-off for these calls is given here.

Key:
A549/TR [1] = assay: Effect on total SRC protein level in human A549/Taxol cells incubated for 24 hrs by Western blotting analysis; format: functional, cell-based; conditions: dose 0.1-10 nM
A549/TR [2] = assay: Downregulation of P-glycoprotein expression in human A549/Taxol cells at 0.1 to 10 nM by Western blotting analysis; format: functional, cell-based; conditions: dose 0.1-10 nM
[3] = target: T1, von Hippel-Lindau disease tumor suppressor/Cytochrome P450 1B1 (Homo sapiens, UniProt Q16678+P40337); assay: PROTAC activity at VHL/CYP1B1 in human A549/Taxol cells assessed as reduction in CYP1B1 level at 10 nM incubated for 24 hrs by Western blotting analysis; format: ADME, cell-based; design: scale not given: the % may be the effect or the level left; conditions: 0.01 µM
T1 sequence (P40337 whole entry, one chain of several): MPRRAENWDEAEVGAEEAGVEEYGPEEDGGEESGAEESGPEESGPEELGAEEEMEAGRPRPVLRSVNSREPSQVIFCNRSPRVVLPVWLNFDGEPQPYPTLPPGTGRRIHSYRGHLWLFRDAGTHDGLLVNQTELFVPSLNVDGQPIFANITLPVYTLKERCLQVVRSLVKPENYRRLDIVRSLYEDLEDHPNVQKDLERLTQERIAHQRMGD

[4] = target: Proto-oncogene tyrosine-protein kinase Src (Homo sapiens) (UniProt P12931); assay: Inhibition of SRC phosphorylation in human A549/Taxol cells incubated for 24 hrs by Western blotting analysis; format: cell-based; conditions: dose 0.1-10 nM
Sequence of Proto-oncogene tyrosine-protein kinase Src (Homo sapiens) (P12931 2-536 limits assumed): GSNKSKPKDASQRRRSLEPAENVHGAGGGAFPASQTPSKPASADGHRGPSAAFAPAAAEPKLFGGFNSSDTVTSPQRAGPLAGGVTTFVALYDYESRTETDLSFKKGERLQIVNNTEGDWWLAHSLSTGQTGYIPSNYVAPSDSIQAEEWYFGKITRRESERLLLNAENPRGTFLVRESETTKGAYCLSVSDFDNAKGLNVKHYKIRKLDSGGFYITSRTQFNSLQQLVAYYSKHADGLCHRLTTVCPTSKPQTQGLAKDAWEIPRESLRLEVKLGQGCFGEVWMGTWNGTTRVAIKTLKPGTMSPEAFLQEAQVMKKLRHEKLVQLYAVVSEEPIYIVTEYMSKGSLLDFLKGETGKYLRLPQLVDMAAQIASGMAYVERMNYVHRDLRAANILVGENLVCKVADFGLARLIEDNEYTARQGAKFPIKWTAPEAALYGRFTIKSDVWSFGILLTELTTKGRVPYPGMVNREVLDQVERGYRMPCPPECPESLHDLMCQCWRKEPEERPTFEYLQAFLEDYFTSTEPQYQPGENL

A549/TR [5] = assay: Reversal of taxol resistance in human A549/Taxol cells assessed as decrease in cell viability at 0.1 nM incubated for 48 to 72 hrs by MTT assay; format: functional, cell-based; conditions: time 48-72 hrs
A549/TR [6] = assay: Inhibition of cell invasion in human A549/Taxol cells at 0.1 to 10 nM incubated for 24 hrs by crystal violet staining based transwell assay; format: functional; conditions: dose 0.1-10 nM
[7] = target: T1, von Hippel-Lindau disease tumor suppressor/Cytochrome P450 1B1; assay: PROTAC activity at VHL/CYP1B1 in human A549/Taxol cells assessed as reduction in CYP1B1 level incubated for 24 hrs by Western blotting analysis; format: ADME, cell-based
[8] = target: T1, von Hippel-Lindau disease tumor suppressor/Cytochrome P450 1B1; assay: PROTAC activity at VHL/CYP1B1 in human A549/Taxol cells assessed as reduction in CYP1B1 level at 10 nM incubated for 1 hr by Western blotting analysis; format: ADME, cell-based; conditions: 0.01 µM
A549/TR [9] = assay: Inhibition of epithelial-to-mesenchymal transition in human A549/Taxol cells assessed as upregulation of E-cadherin protein expression at 0.1 to 10 nM incubated for 24 hrs by immunoblot analysis; format: functional, cell-based; conditions: dose 0.1-10 nM
[10] = target: T1, von Hippel-Lindau disease tumor suppressor/Cytochrome P450 1B1; assay: PROTAC activity at VHL/CYP1B1 in human A549/Taxol cells assessed as reduction in CYP1B1 level at 1 nM incubated for 24 hrs by Western blotting analysis; format: ADME, cell-based; design: scale not given: the % may be the effect or the level left; conditions: 0.001 µM
A549/TR [11] = assay: Reversal of taxol resistance in human A549/Taxol cells assessed as decrease in cell viability at 1 to 10 nM incubated for 48 to 72 hrs by MTT assay; format: functional, cell-based; conditions: dose 1-10 nM, time 48-72 hrs
[12] = target: T1, von Hippel-Lindau disease tumor suppressor/Cytochrome P450 1B1; assay: PROTAC activity at VHL/CYP1B1 in human A549/Taxol cells assessed as reduction in CYP1B1 level at 1000 nM incubated for 24 hrs by Western blotting analysis; format: ADME, cell-based; design: scale not given: the % may be the effect or the level left; conditions: 1 µM
A549/TR [13] = assay: Inhibition of epithelial-to-mesenchymal transition in human A549/Taxol cells assessed as downregulation of N-cadherin protein expression at 0.1 to 10 nM incubated for 24 hrs by immunoblot analysis; format: functional, cell-based; conditions: dose 0.1-10 nM
[14] = target: von Hippel-Lindau disease tumor suppressor/Cytochrome P450 1A1 (Homo sapiens, UniProt P04798+P40337); assay: PROTAC activity at VHL/CYP1A1 (unknown origin); format: ADME, protein assay
Sequence of von Hippel-Lindau disease tumor suppressor/Cytochrome P450 1A1 (P40337 whole entry, one chain of several): as the sequence (P40337 whole entry, one chain of several) above

[15] = target: T1, von Hippel-Lindau disease tumor suppressor/Cytochrome P450 1B1; assay: PROTAC activity at VHL/CYP1B1 in human A549/Taxol cells assessed as degradation by measuring fold change in remaining CYP1B1 level at 1 nM incubated for 24 hrs by Western blotting analysis (reference value: 1); format: ADME, cell-based; conditions: 0.001 µM
[16] = target: T1, von Hippel-Lindau disease tumor suppressor/Cytochrome P450 1B1; assay: PROTAC activity at VHL/CYP1B1 in human A549/Taxol cells assessed as degradation by measuring fold change in remaining CYP1B1 level at 1000 nM incubated for 24 hrs by Western blotting analysis (reference value: 1); format: ADME, cell-based; conditions: 1 µM
A549/TR [17] = assay: Effect on paxillin protein level in human A549/Taxol cells at 0.1 to 10 nM incubated for 24 hrs by Western blotting analysis; format: functional, cell-based; conditions: dose 0.1-10 nM
A549/TR [18] = assay: Inhibition of cell migration in human A549/Taxol cells incubated for 48 hrs by wound healing assay; format: functional, cell-based; conditions: dose 0.1-10 nM
[19] = target: Focal adhesion kinase 1 (Homo sapiens) (UniProt Q05397); assay: Inhibition of FAK phosphorylation in human A549/Taxol cells at 0.1 to 10 nM incubated for 24 hrs by Western blotting analysis; format: cell-based; conditions: dose 0.1-10 nM
Sequence of Focal adhesion kinase 1 (Homo sapiens) (Q05397 2-1052 limits assumed): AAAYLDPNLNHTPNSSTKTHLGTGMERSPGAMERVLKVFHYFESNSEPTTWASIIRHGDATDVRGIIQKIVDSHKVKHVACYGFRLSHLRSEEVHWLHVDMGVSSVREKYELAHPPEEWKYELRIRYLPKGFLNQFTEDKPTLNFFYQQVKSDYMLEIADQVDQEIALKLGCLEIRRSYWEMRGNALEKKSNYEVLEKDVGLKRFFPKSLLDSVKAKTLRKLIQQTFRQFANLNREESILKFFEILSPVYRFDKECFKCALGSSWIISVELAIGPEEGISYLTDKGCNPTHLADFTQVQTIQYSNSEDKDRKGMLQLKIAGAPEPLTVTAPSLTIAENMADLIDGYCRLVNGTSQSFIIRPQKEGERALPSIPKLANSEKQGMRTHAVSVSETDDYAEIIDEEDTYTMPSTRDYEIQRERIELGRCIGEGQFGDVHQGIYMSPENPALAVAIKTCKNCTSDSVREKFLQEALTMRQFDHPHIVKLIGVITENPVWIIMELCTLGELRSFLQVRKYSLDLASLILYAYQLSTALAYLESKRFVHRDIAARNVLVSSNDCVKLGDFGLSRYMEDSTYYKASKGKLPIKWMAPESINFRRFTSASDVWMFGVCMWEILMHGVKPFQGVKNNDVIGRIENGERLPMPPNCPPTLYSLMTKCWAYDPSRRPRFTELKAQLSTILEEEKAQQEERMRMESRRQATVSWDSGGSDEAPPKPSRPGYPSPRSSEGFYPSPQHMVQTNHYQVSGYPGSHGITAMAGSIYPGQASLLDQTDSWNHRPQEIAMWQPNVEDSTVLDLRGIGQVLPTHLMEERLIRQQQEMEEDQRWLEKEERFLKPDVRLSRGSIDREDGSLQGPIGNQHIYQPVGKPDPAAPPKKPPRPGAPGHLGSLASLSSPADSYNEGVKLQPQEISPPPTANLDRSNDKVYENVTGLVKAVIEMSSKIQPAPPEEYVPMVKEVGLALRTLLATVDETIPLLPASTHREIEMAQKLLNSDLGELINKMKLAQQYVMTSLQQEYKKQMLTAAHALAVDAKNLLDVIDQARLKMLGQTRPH

Cytochrome P450 1B1 = target: T2, Cytochrome P450 1B1 (Homo sapiens, UniProt Q16678); assay: Inhibition of recombinant human CYP1B1 using 7-ethyl-O-resorufin as substrate incubated for 30 mins in presence of NADPH by EROD assay; format: ADME
T2 sequence (Q16678 whole entry): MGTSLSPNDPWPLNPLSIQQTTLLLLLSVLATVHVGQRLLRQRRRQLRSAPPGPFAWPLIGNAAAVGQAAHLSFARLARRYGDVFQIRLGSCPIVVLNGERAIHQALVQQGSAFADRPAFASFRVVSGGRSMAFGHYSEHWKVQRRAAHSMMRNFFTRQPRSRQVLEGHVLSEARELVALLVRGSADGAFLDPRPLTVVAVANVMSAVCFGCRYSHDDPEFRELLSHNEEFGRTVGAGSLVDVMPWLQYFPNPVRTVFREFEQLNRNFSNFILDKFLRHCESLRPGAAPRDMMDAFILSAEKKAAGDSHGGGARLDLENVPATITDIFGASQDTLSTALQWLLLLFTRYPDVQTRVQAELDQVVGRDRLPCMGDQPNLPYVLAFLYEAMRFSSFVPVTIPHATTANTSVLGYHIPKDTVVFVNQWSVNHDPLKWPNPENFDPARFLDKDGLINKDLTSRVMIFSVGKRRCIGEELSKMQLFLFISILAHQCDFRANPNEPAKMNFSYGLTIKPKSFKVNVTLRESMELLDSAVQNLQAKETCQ

A549/TR [20] = assay: Effect on total FAK protein level in human A549/Taxol cells at 0.1 to 10 nM incubated for 24 hrs by Western blotting analysis; format: functional, cell-based; conditions: dose 0.1-10 nM
A549/TR [21] = assay: Inhibition of epithelial-to-mesenchymal transition in human A549/Taxol cells assessed as downregulation of vimentin protein expression at 0.1 to 10 nM incubated for 24 hrs by immunoblot analysis; format: functional, cell-based; conditions: dose 0.1-10 nM
A549/TR [22] = assay: Reversal of taxol resistance in human A549/Taxol cells assessed as decrease in cell viability at 0.1 to 10 nM incubated for 48 to 72 hrs by MTT assay; format: functional, cell-based; conditions: dose 0.1-10 nM, time 48-72 hrs
A549/TR [23] = assay: Inhibition of cell migration in human A549/Taxol cells at 0.1 to 10 nM incubated for 48 hrs by wound healing assay; format: functional, cell-based; conditions: dose 0.1-10 nM
[24] = target: T1, von Hippel-Lindau disease tumor suppressor/Cytochrome P450 1B1; assay: PROTAC activity at VHL/CYP1B1 in human A549/Taxol cells assessed as reduction in CYP1B1 level by Western blotting analysis; format: ADME, cell-based
[25] = target: T1, von Hippel-Lindau disease tumor suppressor/Cytochrome P450 1B1; assay: PROTAC activity at VHL/CYP1B1 in human A549/Taxol cells assessed as degradation by measuring fold change in remaining CYP1B1 level incubated for 24 hrs by Western blotting analysis (reference value: 1); format: ADME, cell-based
[26] = target: T1, von Hippel-Lindau disease tumor suppressor/Cytochrome P450 1B1; assay: PROTAC activity at VHL/CYP1B1 in human A549/Taxol cells assessed as reduction in CYP1B1 level at 100 nM incubated for 24 hrs by Western blotting analysis; format: ADME, cell-based; conditions: 0.1 µM
Cytochrome P450 1A1 = target: T3, Cytochrome P450 1A1 (Homo sapiens, UniProt P04798); assay: Inhibition of recombinant human CYP1A1 using 7-ethyl-O-resorufin as substrate incubated for 30 mins in presence of NADPH by EROD assay; format: ADME
T3 sequence (P04798 whole entry): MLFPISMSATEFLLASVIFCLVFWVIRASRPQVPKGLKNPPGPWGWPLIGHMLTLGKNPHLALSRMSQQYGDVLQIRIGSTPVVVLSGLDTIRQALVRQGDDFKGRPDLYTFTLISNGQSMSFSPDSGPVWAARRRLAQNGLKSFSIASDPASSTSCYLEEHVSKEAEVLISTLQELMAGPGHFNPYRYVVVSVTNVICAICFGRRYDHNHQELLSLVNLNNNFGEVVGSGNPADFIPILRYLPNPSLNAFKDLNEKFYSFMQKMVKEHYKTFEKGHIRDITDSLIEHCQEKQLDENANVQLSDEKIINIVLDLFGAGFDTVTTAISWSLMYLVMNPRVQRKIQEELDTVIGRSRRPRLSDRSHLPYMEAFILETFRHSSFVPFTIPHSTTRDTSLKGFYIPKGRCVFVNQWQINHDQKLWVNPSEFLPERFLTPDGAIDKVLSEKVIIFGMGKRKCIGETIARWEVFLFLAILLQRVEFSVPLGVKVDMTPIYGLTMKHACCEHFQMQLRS

Cytochrome P450 1A2 = target: T4, Cytochrome P450 1A2 (Homo sapiens, UniProt P05177); assay: Inhibition of recombinant human CYP1A2 using 7-ethyl-O-resorufin as substrate incubated for 30 mins in presence of NADPH by EROD assay; format: ADME
T4 sequence (P05177 whole entry): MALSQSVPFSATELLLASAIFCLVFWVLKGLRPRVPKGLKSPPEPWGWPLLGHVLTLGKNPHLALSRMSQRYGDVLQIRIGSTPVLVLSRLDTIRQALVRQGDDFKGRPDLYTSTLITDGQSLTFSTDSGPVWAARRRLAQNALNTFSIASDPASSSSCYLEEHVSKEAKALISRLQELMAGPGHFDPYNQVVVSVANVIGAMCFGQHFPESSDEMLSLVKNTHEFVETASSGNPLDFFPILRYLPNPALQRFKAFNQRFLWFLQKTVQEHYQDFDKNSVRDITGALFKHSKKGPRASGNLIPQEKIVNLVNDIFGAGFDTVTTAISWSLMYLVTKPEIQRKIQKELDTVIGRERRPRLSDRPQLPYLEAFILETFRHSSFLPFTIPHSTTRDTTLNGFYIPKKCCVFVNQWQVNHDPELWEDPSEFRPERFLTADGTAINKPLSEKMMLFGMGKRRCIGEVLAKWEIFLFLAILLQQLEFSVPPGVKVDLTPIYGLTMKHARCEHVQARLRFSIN

A549/TR [27] = assay: Inhibition of epithelial-to-mesenchymal transition in human A549/Taxol cells assessed as reduction in CYP1B1 expression at 0.1 to 10 nM incubated for 24 hrs by immunoblot analysis; format: functional, cell-based; conditions: dose 0.1-10 nM
[28] = target: Proto-oncogene tyrosine-protein kinase Src (Homo sapiens) (UniProt P12931); assay: Inhibition of SRC phosphorylation in human A549/Taxol cells at 0.1 to 10 nM incubated for 24 hrs by Western blotting analysis; format: cell-based; conditions: dose 0.1-10 nM
[29] = target: Protein cereblon/Cytochrome P450 1B1 (Homo sapiens, UniProt Q16678+Q96SW2); assay: PROTAC activity at CRBN/CYP1B1 in human A549/Taxol cells assessed as degradation by measuring fold change in remaining CYP1B1 level incubated for 24 hrs by Western blotting analysis (reference value: 1); format: ADME, cell-based
Sequence of Protein cereblon/Cytochrome P450 1B1 (Q96SW2 whole entry, one chain of several): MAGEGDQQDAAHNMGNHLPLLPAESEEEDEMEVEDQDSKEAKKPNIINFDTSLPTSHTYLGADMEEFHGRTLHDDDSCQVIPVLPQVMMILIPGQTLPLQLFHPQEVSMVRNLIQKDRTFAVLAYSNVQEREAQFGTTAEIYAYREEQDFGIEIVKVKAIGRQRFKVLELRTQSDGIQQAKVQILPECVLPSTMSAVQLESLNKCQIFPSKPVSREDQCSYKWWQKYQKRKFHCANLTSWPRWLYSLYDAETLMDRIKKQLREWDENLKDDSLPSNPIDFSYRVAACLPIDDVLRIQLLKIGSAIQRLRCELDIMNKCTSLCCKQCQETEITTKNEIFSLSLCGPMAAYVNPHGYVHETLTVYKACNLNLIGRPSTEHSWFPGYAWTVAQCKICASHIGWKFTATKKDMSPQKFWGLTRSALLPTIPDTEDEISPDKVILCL

Cc1ncsc1-c1ccc([C@H](C)NC(=O)[C@@H]2C[C@@H](O)CN2C(=O)[C@@H](NC(=O)CCCCCCOc2ccccc2-c2csc(-c3csc(Nc4ccc(Cl)cc4)n3)n2)C(C)(C)C)cc1
Activity (A549/TR [1]): Dose-Dependent Effect
Activity (A549/TR [2]): Active
Activity [3]: 80%
inhibition [4]: Active
Activity (A549/TR [5]): Active
inhibition (A549/TR [6]): Active
DC50 [7]: 0.0001 µM
Activity [8]: Active
inhibition (A549/TR [9]): Active
Activity [10]: 50%
Activity (A549/TR [11]): Active
Activity [12]: 60%
inhibition (A549/TR [13]): Active
Activity [14]: Not Active
fold change (FC) [15]: 0.5
fold change (FC) [16]: 0.6
Activity (A549/TR [17]): Active
inhibition (A549/TR [18]): Dose-Dependent Effect
inhibition [19]: Active
inhibition (INH) (Cytochrome P450 1B1; human, recombinant enzyme, 0.5 h, time 30 min): Active
Activity (A549/TR [20]): inactive
inhibition (A549/TR [21]): Active

Clc1ccc(Nc2nc(-c3nc(-c4ccccc4)cs3)cs2)cc1
Activity (A549/TR [22]): inactive
Activity (A549/TR [2]): inactive
inhibition (A549/TR [23]): inactive
Activity [24]: Not Active
fold change (FC) [25]: 1
Activity [26]: Not Active
IC50 (Cytochrome P450 1A1): 0.279 µM
IC50 (Cytochrome P450 1A2): 3.91 µM
inhibition (A549/TR [27]): inactive
Activity (A549/TR [17]): Active
inhibition [28]: Active
fold change (FC) [29]: 0.8
IC50 (Cytochrome P450 1B1): 0.0119 µM
